Assay results: US10336746B1, “RAD51 inhibitors” (Cyteir Therapeutics, Inc., priority 2017, dated 2019)
Read-outs that look alike come from different tables or passages of the source.

Key:
[1] = Bi-directional Caco-2 permeability; format: in vitro ADME; conditions: human
Method: Bi-directional Caco-2 permeability was assayed. Caco-2 cells were seeded onto permeable polycarbonate supports and allowed to differentiate for about 3 weeks prior to being used in the assays. The cells were then exposed to the compounds from either the apical or basolateral sides and incubated at 37 C for up to 90 minutes under light agitation. Compound transport was then measured using LC/MS/MS analysis at 30, 60, and 90 minutes.

[2] = test system: Daudi cell line (AID positive); test: Primary screening cell killing assay, Daudi cell line (AID positive); format: cell-based; conditions: Homo sapiens, 168 h, cell death on Day 7, Cell-Titer Glo
Method: Primary screening was a phenotypic screen that utilized the synthetic lethal interaction between AID and RAD51 to identify compounds that were both potent and on target. AID expressing cells are dependent upon RAD51 for survival; inhibiting RAD51 in AID positive cells results in a cytotoxic effect.
The first step was to set up a cell killing assay in the Daudi cell line (AID positive). A 96 well u-bottom plate was prepared by writing the experiment number, plate number, date and initials in the top right corner of the plate lid. With a sterile 300 ml reservoir, and 25 ml serological pipette, evaporation buffer media was pipetted into reservoir in 25 ml increments. Using the liquid handler, 150 ul of evaporation buffer media was pipetted from reservoir into rows A and H, and Columns 1 and 12 of the 96 well u-bottom plate. Cell cultures were counted to obtain the density of cells per ml, and the culture viability. The cell density information was used to obtain 1,000,000 cells from culture using a 5 mL serological pipette into an epi tube. The cell density information from the culture was used to calculate the number of cells and volume of media needed for the assay to seed 1250 cells in 130 ul of media per available culture well in the 96 well u-bottom plate. Rows B through F were used for cells (50 wells in total), with row G left for an empty media control. The calculation was overestimated by 10 mL to account for the dead volume in the 300 ml reservoir. Once the media volume was calculated, the appropriate volume of media was pipetted in 25 mL increments into the 250 mL bottle using a 25 mL serological pipette. The 250 ml bottle was capped tightly, and placed into a 37° C. water bath for 2 minutes. While the culture media was warming, 10 mL of fresh media was pipetted from the 500 mL culture media bottle into a sterile 25 mL reservoir. Using the Eppendorf multichannel pipette, 130 ul of media was pipetted from the 25 mL reservoir into row G of the 96 well u-bottom plate. Once the 250 mL bottle of media was warmed, the volume of culture needed was pipetted into the bottle, and mixed gently with a 25 mL serological pipette as to not create bubbles, and then the contents of the bottle were pipetted into a new 300 mL reservoir. Using the liquid handler, 130 ul of culture was pipetted from the 300 mL reservoir into rows B through F of the 96 well u-bottom plate. Once the culture was added, the plate was placed into a 37° C. incubator until the compound master plate was prepared for use.
Two 96 well u-bottom plates were prepared by writing the master plate name in the upper right corner of the plate lid. Labeling one DMSO master and the other Media Master. The compounds of interest were obtained from the laboratory freezer, and placed into a 25 well storage box with a lid, and set the box aside. The compounds were vortexed after thawing but before use. Using an automatic multichannel pipette, 20 ul of 100% DMSO was pipetted into wells B3-B11 through G3-G11 of the DMSO master plate. For each compound on the master plate, 50 ul of the compound were pipetted in the appropriate well of row 2 (reference plate map to determine appropriate well). A serial dilution was prepared beginning by aspirating 20 ul from row 2 and mixing with row 3, repeating until row 11 was reached. Using the liquid handler, 194 ul of Daudi media was dispensed into wells B2-B11 through G2-G11 of the Media master plate. Using the liquid handler, 6 ul from the DMSO master plate was aspirated and dispensed into the media master plate, mixing 100 ul twice.
Compounds from master plate were then added to the culture plate. The culture plates were removed from the incubator, and set inside the biosafety cabinet. Using a liquid handler, 20 ul from wells B2 to B11 through G2 to G11 of master plate were aspirated, and dispensed into wells B2 to B11 through G2 to G11 of culture plate. This set was continued with each culture plate. […]

Row | SMILES | EC50 [2] [µM] | also measured
1 | CC(C)OC(=O)N[C@H]1CC[C@H](c2ncc(-c3ccc(NC(=O)NCc4ccccc4F)cc3S(=O)(=O)NC(C)(C)C)s2)CC1 [Ex. 28, isopropyl ((1r,4r)-4-(5-(2-(N-(tert-butyl)sulfamoyl)-4-(3-(2-fluorobenzyl)ureido)phenyl)thiazol-2-yl)cyclohexyl)carbamate] | ≤ 0.1 | recovery at 90 min ([1]; Caco-2, Caco-2, AB direction, read-out: AB Recovery %): 66.9%; recovery at 90 min ([1]; Caco-2, Caco-2, BA direction, read-out: BA Recovery %): 81%; efflux ratio at 90 min ([1]; Caco-2, read-out: BA/AB Ratio): 1.7; Papp A→B at 90 min ([1]; Caco-2, apical to basolateral, 37 C, up to 90 minutes, read-out: AB Papp (cm/sec × 10^6)): 1.9 ×10⁻⁶ cm/s; Papp B→A at 90 min ([1]; Caco-2, basolateral to apical, 37 C, up to 90 minutes, read-out: BA Papp (cm/sec × 10^6)): 3.3 ×10⁻⁶ cm/s
2 | CN1CCC[C@H]1COC(=O)Nc1ccc(-c2cnc(N3CCC(OC(=O)NCc4ccccc4)CC3)s2)c(S(=O)(=O)NC(C)(C)C)c1 [Ex. 1, (S)-(1-methylpyrrolidin-2-yl)methyl (4-(2-(4-((benzylcarbamoyl)oxy)piperidin-1-yl)thiazol-5-yl)-3-(N-(tert-butyl)sulfamoyl)phenyl)carbamate] | > 1 | 
3 | CN1CCC[C@@H]1COC(=O)Nc1ccc(-c2cnc(N3CCC(OC(=O)NCc4ccccc4)CC3)s2)c(S(=O)(=O)NC(C)(C)C)c1 [Ex. 2, [1-[5-[2-(tert-butylsulfamoyl)-4-[[(2R)-1-methylpyrrolidin-2-yl]methoxycarbonylamino]phenyl]thiazol-2-yl]-4-piperidyl] N-benzylcarbamate] | > 1 | 
4 | CC(C)OC(=O)Nc1ccc(-c2cnc(C3CCC(NC(=O)OC[C@H]4CCCN4C)CC3)s2)c(S(=O)(=O)NC(C)(C)C)c1 (stereo partly drawn) [Ex. 8, [(2R)-1-methylpyrrolidin-2-yl]methyl N-[4-[5-[2-(tert-butylsulfamoyl)-4-(isopropoxycarbonylamino)phenyl]thiazol-2-yl]cyclohexyl]carbamate] | > 1 | 
5 | CC(C)OC(=O)N[C@H]1CC[C@H](c2ncc(-c3ccc(NC(=O)OCC4CCNCC4)cc3S(=O)(=O)NC(C)(C)C)s2)CC1 [Ex. 33, trans-4-piperidylmethyl N-[3-(tert-butylsulfamoyl)-4-[2-[4-(isopropoxycarbonylamino)cyclohexyl]thiazol-5-yl]phenyl]carbamate] | > 1 | 
6 | CC(C)OC(=O)NC1CCN(c2ncc(-c3ccc(NC(=O)NCc4ccccc4)cc3S(=O)(=O)NC(C)(C)C)s2)CC1 [Ex. 68, isopropyl N-[1-[5-[4-(benzylcarbamoylamino)-2-(tert-butylsulfamoyl)phenyl]thiazol-2-yl]-4-piperidyl]carbamate] | 0.1 to 1 | 
7 | CN1CCC[C@H]1COC(=O)N[C@H]1CC[C@H](c2ncc(-c3ccc(NC(=O)NCc4ccccc4)cc3S(=O)(=O)NC(C)(C)C)s2)CC1 [Ex. 12, ((S)-1-methylpyrrolidin-2-yl)methyl ((1r,4S)-4-(5-(4-(3-benzylureido)-2-(N-(tert-butyl)sulfamoyl)phenyl)thiazol-2-yl)cyclohexyl)carbamate] | 0.1 to 1 | 
8 | CC(C)OC(=O)Nc1ccc(-c2cnc(C3CCC(NC(=O)OC[C@@H]4CCCN4C)CC3)s2)c(S(=O)(=O)NC(C)(C)C)c1 (stereo partly drawn) [Ex. 9, isopropyl (3-(N-(tert-butyl)sulfamoyl)-4-(2-((1S,4r)-4-(((((S)-1-methylpyrrolidin-2-yl)methoxy)carbonyl)amino)cyclohexyl)thiazol-5-yl)phenyl)carbamate] | 0.1 to 1 | 
9 | CC(C)OC(=O)Nc1ccc(-c2cnc(N3CCC(NC(=O)OC(C)C)CC3)s2)c(S(=O)(=O)NC(C)(C)C)c1 [Ex. 69, isopropyl N-[1-[5-[2-(tert-butylsulfamoyl)-4-(isopropoxycarbonylamino)phenyl]thiazol-2-yl]-4-piperidyl]carbamate] | > 1 | 
10 | CN1CCC[C@@H]1COC(=O)NC1CCC(c2ncc(-c3ccc(NC(=O)NCc4ccccc4)cc3S(=O)(=O)NC(C)(C)C)s2)CC1 (stereo partly drawn) [Ex. 11, [(2R)-1-methylpyrrolidin-2-yl]methyl N-[4-[5-[4-(benzylcarbamoylamino)-2-(tert-butylsulfamoyl)phenyl]thiazol-2-yl]cyclohexyl]carbamate] | 0.1 to 1 | 
11 | CC(C)OC(=O)Nc1ccc(-c2cnc([C@H]3CC[C@@H](NC(=O)OC(C)C)CC3)s2)c(S(=O)(=O)NC(C)(C)C)c1 [Ex. 67B, cis-isopropyl N-[3-(tert-butylsulfamoyl)-4-[2-[4-(isopropoxycarbonylamino)cyclohexyl]thiazol-5-yl]phenyl]carbamate] | > 1 | 
12 | CC(C)OC(=O)N[C@H]1CC[C@H](c2ncc(-c3ccc(NC(=O)NCc4ccncc4)cc3S(=O)(=O)NC(C)(C)C)s2)CC1 [Ex. 22, trans-isopropyl N-[4-[5-[2-(tert-butylsulfamoyl)-4-(4-pyridylmethylcarbamoylamino)phenyl]thiazol-2-yl]cyclohexyl]carbamate] | 0.1 to 1 | 
13 | CC(C)OC(=O)NC1CCC(c2ncc(-c3ccc(NC(=O)OC[C@H]4CCCN4)cc3S(=O)(=O)NC(C)(C)C)s2)CC1 (stereo partly drawn) [Ex. 36, isopropyl ((1R,4r)-4-(5-(2-(N-(tert-butyl)sulfamoyl)-4-(((((R)-pyrrolidin-2-yl)methoxy)carbonyl)amino)phenyl)thiazol-2-yl)cyclohexyl)carbamate] | 0.1 to 1 | 
14 | CC(C)OC(=O)N1CCN(c2ncc(-c3ccc(NC(=O)OCc4ccccc4)cc3S(=O)(=O)NC(C)(C)C)s2)CC1 [Ex. 6, isopropyl 4-[5-[4-(benzyloxycarbonylamino)-2-(tert-butylsulfamoyl)phenyl]thiazol-2-yl]piperazine-1-carboxylate] | > 1 | 
15 | CC(C)OC(=O)N[C@H]1CC[C@H](c2ncc(-c3ccc(NC(=O)NCc4cccnc4)cc3S(=O)(=O)NC(C)(C)C)s2)CC1 [Ex. 25, isopropyl ((1r,4r)-4-(5-(2-(N-(tert-butyl)sulfamoyl)-4-(3-(pyridin-3-ylmethyl)ureido)phenyl)thiazol-2-yl)cyclohexyl)carbamate] | ≤ 0.1 | 
16 | CC(C)OC(=O)NC1CCC(c2ncc(-c3ccc(NC(=O)OC[C@@H]4CCCN4)cc3S(=O)(=O)NC(C)(C)C)s2)CC1 (stereo partly drawn) [Ex. 37, isopropyl ((1S,4r)-4-(5-(2-(N-(tert-butyl)sulfamoyl)-4-(((((S)-pyrrolidin-2-yl)methoxy)carbonyl)amino)phenyl)thiazol-2-yl)cyclohexyl)carbamate] | 0.1 to 1 | 
17 | CC(C)OC(=O)N[C@H]1CC[C@H](c2ncc(-c3ccc(NC(=O)NCc4ccc(F)cc4)cc3S(=O)(=O)NC(C)(C)C)s2)CC1 [Ex. 23, isopropyl ((1r,4r)-4-(5-(2-(N-(tert-butyl)sulfamoyl)-4-(3-(4-fluorobenzyl)ureido)phenyl)thiazol-2-yl)cyclohexyl)carbamate] | ≤ 0.1 | 
18 | COc1cc(NC(=O)OC(C)C)cnc1-c1ncc(-c2ccc(NC(=O)OCC3CCNCC3)cc2S(=O)(=O)NC(C)(C)C)s1 [Ex. 56, 4-piperidylmethyl N-[3-(tert-butylsulfamoyl)-4-[2-[5-(isopropoxycarbonylamino)-3-methoxy-2-pyridyl]thiazol-5-yl]phenyl]carbamate] | 0.1 to 1 | 
19 | CC(C)OC(=O)N[C@H]1CC[C@@H](c2ncc(-c3ccc(NC(=O)NCc4ccccc4)cc3S(=O)(=O)NC(C)(C)C)s2)CC1 [Ex. 66B, cis-isopropyl N-[4-[5-[4-(benzylcarbamoylamino)-2-(tert-butylsulfamoyl)phenyl]thiazol-2-yl]cyclohexyl]carbamate] | 0.1 to 1 | 
